According to US4730063A, “Alkali metal 2,5-dihydro-3-ethoxycarbonyl-2-[(substituted phenyl)amino]-4-furanyloxides” (Pennwalt Corportion, priority 1986, dated 1988):

Test system: carrageenan-induced rat paw edema
Assay: carrageenan-induced rat paw edema assay
Format: in vivo
Conditions: oral doses of 50 mg/kg

Compound | inhibition of edema
CCOC(=O)C1=C(O)COC1=Nc1ccccc1 [Example 1, potassium 2,5-dihydro-3-ethoxycarbonyl-2-(phenylimino)-4-furanyloxide] | 31%
CCOC(=O)C1=C(O)COC1=Nc1cccc([N+](=O)[O-])c1 [Example 4, potassium 2,5-dihydro-3-ethoxycarbonyl-2-[(3-nitrophenyl)imino]-4-furanyloxide] | 28.3%
